Experimental data as given in paper PMC5505983, “Naringenin Impairs Two-Pore Channel 2 Activity And Inhibits VEGF-Induced Angiogenesis” (Scientific Reports, 2017).

Assays:
hTPC1 = biological target: T1, hTPC1 (Homo sapiens, UniProt Q9ULQ1); experiment: whole-vacuole patch clamp, current activation; type: biochemical; settings: activator; 90 nM cytosolic side; diC8 form; pH 7.5 cytosolic, pH 5.5 vacuolar
T1 construct: gene TPCN1; full-length with C-terminal EGFP, plasmid pSAT-hTPC1-EGFP; transiently expressed in vacuoles of Arabidopsis thaliana tpc1-2 mutant mesophyll protoplasts; dimer

hTPC2 = biological target: T2, hTPC2 (Homo sapiens, UniProt Q8NHX9); experiment: whole-vacuole patch clamp, dose-response of current inhibition; type: cell-based; settings: read-out: apparent affinity constant
T2 construct: gene TPCN2; full-length with C-terminal EGFP, plasmid pSAT-hTPC2-EGFP; transiently expressed in vacuoles of Arabidopsis thaliana tpc1-2 mutant mesophyll protoplasts; dimer
T2 sequence (Q8NHX9 whole entry): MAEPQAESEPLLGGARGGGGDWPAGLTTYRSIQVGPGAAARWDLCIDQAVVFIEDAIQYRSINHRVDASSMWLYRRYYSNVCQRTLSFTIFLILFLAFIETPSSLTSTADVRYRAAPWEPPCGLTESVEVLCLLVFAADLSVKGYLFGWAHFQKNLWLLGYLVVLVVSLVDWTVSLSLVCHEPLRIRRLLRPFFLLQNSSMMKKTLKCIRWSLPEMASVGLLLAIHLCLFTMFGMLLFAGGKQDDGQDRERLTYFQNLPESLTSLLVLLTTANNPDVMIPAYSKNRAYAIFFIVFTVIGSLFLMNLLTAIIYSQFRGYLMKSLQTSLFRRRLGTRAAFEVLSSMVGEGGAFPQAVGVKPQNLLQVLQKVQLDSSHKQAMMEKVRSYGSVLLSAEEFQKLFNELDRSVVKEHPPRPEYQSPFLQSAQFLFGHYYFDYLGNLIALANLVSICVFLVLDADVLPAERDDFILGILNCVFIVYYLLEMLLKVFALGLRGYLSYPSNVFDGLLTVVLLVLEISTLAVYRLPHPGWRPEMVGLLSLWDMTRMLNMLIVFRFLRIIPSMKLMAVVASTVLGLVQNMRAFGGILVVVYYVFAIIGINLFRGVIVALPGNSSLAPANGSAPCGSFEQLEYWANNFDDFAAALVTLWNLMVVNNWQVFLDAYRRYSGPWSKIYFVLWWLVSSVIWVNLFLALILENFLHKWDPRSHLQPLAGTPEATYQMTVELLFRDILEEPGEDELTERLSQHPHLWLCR

IC50 (hTPC2)	SMILES	whole-vacuole patch clamp, current activation (hTPC1)
–	CCCCCCCC(=O)OC[C@H](COP(=O)(O)O[C@@H]1[C@H](O)[C@H](OP(=O)(O)O)[C@@H](O)[C@H](OP(=O)(O)O)[C@H]1O)OC(=O)CCCCCCC [PI(3,5)P2]	very small in comparison to those elicited by the addition of the phosphoinositide
180 ± 20 µM	O=C1C[C@@H](c2ccc(O)cc2)Oc2cc(O)cc(O)c21 [Nar, 5,7-dihydroxy-2-(4-hydroxyphenyl)chroman-4-one]	–
